# According to patent US8129532B2, “Amino(oligo)thiophene dyes, preparation thereof, and optical methods of use” (The University of Connecticut, priority 2007, dated 2012):
# System: layer V pyramidal neurons
# Experiment: Voltage-sensitive dye imaging of action potentials in intracellularly stained pyramidal neurons in brain slices
# Assay type: cell-based, Sprague Dawley rats
# Details: for dF/F at 658 nm / dF/F at 633 nm: backpropagating AP, %; for dF/F at 658 nm / voltage sensitivity compared with red dye / dF/F at 633 nm: basal dendrites 80-150 μm from soma; for dF/F at 658 nm / S/N ratio at 658 nm: laser spot 658 nm; for dF/F at 633 nm / S/N ratio at 633 nm: laser spot 633 nm
# Description: Sprague Dawley rats (P21-42) were anesthetized with isoflurane, decapitated, and the brains were removed with the head immersed in ice-cold, artificial cerebrospinal fluid (ACSF), according to an animal protocol approved by the Center for Laboratory Animal Care, University of Connecticut. Brain slices (300 μm) were cut from frontal lobes in the coronal plane. ACSF contained (in mM) 125 NaCl, 26 NaHCO3, 10 glucose, 2.3 KCl, 1.26 KH2PO4, 2 CaCl2 and 1 MgSO4, pH 7.4. Whole-cell recordings were made from visually identified layer V pyramidal neurons on the medial part of the slice. Intracellular solution contained (in mM) 135 K-gluconate, 2 MgCl2, 3 Na2-ATP, 10 Na2-phosphocreatine, 0.3 Na2-GTP and 10 Hepes (pH 7.3, adjusted with KOH). Electrical signals were amplified with Multiclamp 700A and digitized with two input boards: (1) Digidata Series 1322A (Axon Instruments) at 5 kHz, and (2) Neuroplex (RedShirtImaging) at 2.7 kHz sampling rate. Only cells with a membrane potential more hyperpolarized than −50 mV, and action potential amplitudes exceeding 80 mV (measured from the base line) were included in this study. All experiments were performed on layer 5 cortical pyramidal cells at 34° C.
# Blue dyes were stored in ethanol stock solution at −20° C. On the day of the recording blue dyes were dissolved in standard K-gluconate based intracellular solution. A loading pipette was filled with two varieties of the same intracellular solution; one with and one without dye. Dye-free solution was occupying the very tip of the pipette, while the back of the pipette lumen was microloaded with dye-rich solution. The purpose of dye-free solution in the tip of the patch pipette was to prevent dye-leak during the maneuver through brain slice tissue. VSD styryl dyes are lipophilic and bind indiscriminately and irreversibly to all membranes around the neuron of interest. Even a small amount of dye that leaks out of the pipette during the formation of the gigaohm seal, can generate strong fluorescent background. Fluorescent light emanating from surrounding tissue has a devastating effect on dendritic optical signals. Elimination of the background fluorescence is critical for dendritic voltage imaging. How much dye-free solution one should put in the tip depends on time period between the submersion of the patch pipette into the recording chamber and formation of the gigaohm seal. The faster one can perform this maneuver the less dye-free solution she needs to achieve optimal staining.
# Blue VSD were injected at room temperature for 25-60 minutes. The filling pipette was carefully pulled out (outside-out patch) and brain slices were left to incubate for 20-120 minutes at room temperature. Just before optical recordings the cells were re-patched with dye-free pipette at the physiological temperature (34° C.).
# Voltage-sensitive dye imaging was performed on a Zeiss Axioskope 2FS microscope equipped with NeuroCCD camera (RedShirtImaging). We used Zeiss 40× objective IR-Achroplan 0.80 W. The size of the square visual field captured by NeuroCCD camera was 384×384 um. In the place of the arc lamp (normally used for epi-illumination), we inserted a 200 μm fiber optic guide with a collimator. Laser beam was focused on the other side of the fiber optic guide using a microscope objective-like lens. This arrangement produced a motionless spot of laser light (˜25 μm in diameter) at the object plane. An illuminated section of the brain slice, projected onto the NeuroCCD camera, covered approximately 25 pixels when used with 40× objective lens. At this magnification, one pixel sampled a 4.8×4.8 square in the object plane. A region of interest (ROI) was brought into the laser spot using X-Y microscope platform. The laser beam was interrupted by an electro-programmable shutter (Uniblitz®). Attention was made to limit the exposure time during the recording and positioning of the neuron.
compound,measurement,value
"CCN(CC)c1ccc(-c2ccc(/C=C/c3cc[n+](CCC[N+](CC)(CC)CC)cc3)s2)s1 [PY-1261, Di-2-BTEPPTEA]",dF/F at 658 nm,7.91 ± 1.57%
same,voltage sensitivity compared with red dye,better sensitivity than red dye JPW-3028
same,S/N ratio at 658 nm,5.38 ± 1.86
"CCCCN(CCCC)c1ccc(-c2ccc(/C=C/c3cc[n+](CCC[N+](CC)(CC)CC)cc3)s2)s1 [PY-1266, Di-4-BTEPPTEA]",polarity of optical signal at 532 nm excitation,positive signals
same,polarity of optical signal at 658 nm excitation,positive signals
same,dF/F at 633 nm,10.41 ± 2.80%
same,dF/F at 658 nm,8.32 ± 2.13%
same,voltage sensitivity compared with red dye,better sensitivity than red dye JPW-3028
same,S/N ratio at 633 nm,4.77 ± 1.35
same,S/N ratio at 658 nm,5.22 ± 1.32
"CCCN(CCC)c1ccc(-c2ccc(/C=C/c3cc[n+](CCC[N+](CC)(CC)CC)cc3)s2)s1 [PY-1286, Di-3-BTEPPTEA]",dF/F at 633 nm,13.67 ± 2.89%
same,dF/F at 658 nm,7.64 ± 2.20%
same,voltage sensitivity compared with red dye,better sensitivity than red dye JPW-3028
same,S/N ratio at 633 nm,4.53 ± 0.95
same,S/N ratio at 658 nm,5.13±2.31
